Values joined by “and” are separate entries in the source; they are usually repeats but may differ in a detail not shown here. Equal values may be shown once.
Experiment: 3-Month stability data for TTI-101 Batches B, C, D and E stored at 40° C./75% RH
Assay type: physicochemical
Experimental: Exemplary HPLC conditions: diluent was 0.1% trifluoroacetic acid (TFA) in acetonitrile, Mobile Phase A was 0.05% TFA in water, and Mobile Phase B was 0.05% TFA in acetonitrile, column (Agilent, Eclipse XDB-C18, 3.0×100 mm, particle size 1.8 μm), flow (0.425 mL/min), and detector (280 nm diode array).
Batches B, C, and D were prepared according to Method 5, Method 4, and Method 3, respectively, as described in Example 1. Batch E was prepared analogously using according to Method 1 as described in Example 1.
Samples of TTI-101 (Batches B, C, D, and E) were stored at 40° C./75% RH for 3 months. The batches were individually stored in an low density polyethylene (LDPE) bag enclosed with a Nylon cable tie and then transferred to another LDPE bag and enclosed with a Nylon cable tie. The enclosure was put into a high density polyethylene (HDPE) bottle and closed with a polyethylene-lined polypropylene cap. For Batch B only, another sample was enclosed in a screw-top amber glass bottle and closed with a cap. The samples were stored under the above-identified conditions.

COc1ccc(S(=O)(=O)Nc2cc(-c3c(O)ccc4ccccc34)c(O)c3ccccc23)cc1 [Batch B (glass storage)]
Impurities Total, Area % (0 M): 0.2 Area % | Impurity RRT 0.39, Area % (0 M): 0.06 Area % | Impurity RRT 0.49, Area % (0 M): NQ (≥0.02% and <0.05%) | Impurity RRT 0.54, Area % (0 M): NQ (≥0.02% and <0.05%) | Impurity RRT 0.99, Area % (0 M): NQ (≥0.02% and <0.05%) | Impurity RRT 1.16 (Cmp 6), Area % (0 M): 0.12 Area % | Impurities Total, Area % (1 M): 0.3 Area % | Impurity RRT 0.80, Area % (1 M): NQ (≥0.02% and <0.05%) | Impurity RRT 0.84, Area % (1 M): NQ (≥0.02% and <0.05%) | Impurity RRT 0.87, Area % (1 M): NQ (≥0.02% and <0.05%) | Impurity RRT 0.99, Area % (1 M): 0.05 Area % | Impurity RRT 1.02, Area % (1 M): 0.06 Area % | Impurity RRT 1.06 (Cmp 4), Area % (1 M): NQ (≥0.02% and <0.05%) | Impurity RRT 1.17 (Cmp 6), Area % (1 M): 0.23 Area % | Impurity RRT 1.39, Area % (1 M): NQ (≥0.02% and <0.05%) | Impurities Total, Area % (2 M): 0.4 Area % | Impurity RRT 0.39, Area % (2 M): NQ (≥0.02% and <0.05%) | Impurity RRT 0.80, Area % (2 M): NQ (≥0.02% and <0.05%) | Impurity RRT 0.84, Area % (2 M): NQ (≥0.02% and <0.05%) | Impurity RRT 0.87, Area % (2 M): NQ (≥0.02% and <0.05%) | Impurity RRT 0.99, Area % (2 M): NQ (≥0.02% and <0.05%) | Impurity RRT 1.02, Area % (2 M): 0.10 Area % | Impurity RRT 1.05, Area % (2 M): NQ (≥0.02% and <0.05%) | Impurity RRT 1.06 (Cmp 4), Area % (2 M): NQ (≥0.02% and <0.05%) | Impurity RRT 1.17 (Cmp 6), Area % (2 M): 0.323 Area % and 0.23 Area % | Impurity RRT 1.39, Area % (2 M): 0.09 Area % | Impurities Total, Area % (3 M): 2.9 Area % | Impurity RRT 0.40, Area % (3 M): NQ (≥0.02% and <0.05%) | Impurity RRT 0.85, Area % (3 M): NQ (≥0.02% and <0.05%) | Impurity RRT 0.88, Area % (3 M): NQ (≥0.02% and <0.05%) | Impurity RRT 0.98, Area % (3 M): NQ (≥0.02% and <0.05%) | Impurity RRT 1.02, Area % (3 M): 0.13 Area % | Impurity RRT 1.06 (Cmp 4), Area % (3 M): NQ (≥0.02% and <0.05%) | Impurity RRT 1.10, Area % (3 M): NQ (≥0.02% and <0.05%) | Impurity RRT 1.13, Area % (3 M): NQ (≥0.02% and <0.05%) | Impurity RRT 1.16 (Cmp 6), Area % (3 M): 2.6 Area % | Impurity RRT 1.38 (1.39), Area % (3 M): 0.14 Area % | Purity (%) (T = 0 month (0 M)): 99.8% and 99.6% | Purity (%) (T = 1 month (1 M)): 99.5% | Purity (%) (T = 2 months (2 M)): 99.4% | Purity (%) (T = 3 months (3 M)): 97.0%

COc1ccc(S(=O)(=O)Nc2cc(-c3c(O)ccc4ccccc34)c(O)c3ccccc23)cc1 [Batch B (LDPE storage)]
Impurities Total, Area % (0 M): 0.2 Area % | Impurity RRT 0.39, Area % (0 M): 0.06 Area % | Impurity RRT 0.49, Area % (0 M): NQ (≥0.02% and <0.05%) | Impurity RRT 0.54, Area % (0 M): NQ (≥0.02% and <0.05%) | Impurity RRT 0.99, Area % (0 M): NQ (≥0.02% and <0.05%) | Impurity RRT 1.16 (Cmp 6), Area % (0 M): 0.12 Area % | Impurities Total, Area % (1 M): 0.1 Area % and 0.3 Area % | Impurity RRT 0.80, Area % (1 M): NQ (≥0.02% and <0.05%) | Impurity RRT 0.84, Area % (1 M): NQ (≥0.02% and <0.05%) | Impurity RRT 0.87, Area % (1 M): NQ (≥0.02% and <0.05%) | Impurity RRT 0.99, Area % (1 M): NQ (≥0.02% and <0.05%) | Impurity RRT 1.02, Area % (1 M): 0.05 Area % | Impurity RRT 1.05, Area % (1 M): NQ (≥0.02% and <0.05%) | Impurity RRT 1.06 (Cmp 4), Area % (1 M): NQ (≥0.02% and <0.05%) | Impurity RRT 1.17 (Cmp 6), Area % (1 M): 0.24 Area % | Impurity RRT 1.39, Area % (1 M): NQ (≥0.02% and <0.05%) | Impurities Total, Area % (2 M): 0.6 Area % | Impurity RRT 0.39, Area % (2 M): NQ (≥0.02% and <0.05%) | Impurity RRT 0.51, Area % (2 M): 0.06 Area % | Impurity RRT 0.80, Area % (2 M): NQ (≥0.02% and <0.05%) | Impurity RRT 0.84, Area % (2 M): NQ (≥0.02% and <0.05%) | Impurity RRT 0.87, Area % (2 M): NQ (≥0.02% and <0.05%) | Impurity RRT 0.99, Area % (2 M): NQ (≥0.02% and <0.05%) | Impurity RRT 1.02, Area % (2 M): 0.11 Area % | Impurity RRT 1.05, Area % (2 M): NQ (≥0.02% and <0.05%) | Impurity RRT 1.06 (Cmp 4), Area % (2 M): NQ (≥0.02% and <0.05%) | Impurity RRT 1.17 (Cmp 6), Area % (2 M): 0.32 Area % | Impurity RRT 1.39, Area % (2 M): 0.10 Area % and 0.1 Area % | Impurities Total, Area % (3 M): 3.2 Area % | Impurity RRT 0.40, Area % (3 M): NQ (≥0.02% and <0.05%) | Impurity RRT 0.85, Area % (3 M): NQ (≥0.02% and <0.05%) | Impurity RRT 0.88, Area % (3 M): NQ (≥0.02% and <0.05%) | Impurity RRT 0.98, Area % (3 M): NQ (≥0.02% and <0.05%) | Impurity RRT 1.02, Area % (3 M): 0.13 Area % | Impurity RRT 1.05, Area % (3 M): NQ (≥0.02% and <0.05%) | Impurity RRT 1.06 (Cmp 4), Area % (3 M): NQ (≥0.02% and <0.05%) | Impurity RRT 1.13, Area % (3 M): NQ (≥0.02% and <0.05%) | Impurity RRT 1.16 (Cmp 6), Area % (3 M): 2.9 Area % | Impurity RRT 1.38 (1.39), Area % (3 M): 0.16 Area % | Purity (%) (T = 0 month (0 M)): 99.8% and 99.6% | Purity (%) (T = 1 month (1 M)): 99.5% | Purity (%) (T = 2 months (2 M)): 99.2% | Purity (%) (T = 3 months (3 M)): 96.6%
